# Data reported in US20250263370A1 (Tay Therapeutics Limited, priority 2022, published 2025).
# Legend:
# [1] = Thermodynamic solubility in FaSSIF pH 6.5 buffer; format: physicochemical; details: FaSSIF buffer, 25 °C, pH 6.5, fassif, thermodynamic from solid, Method 1 (UV-vis, 25° C., 24 hrs)
# Procedure: FaSSIF v2 buffer is freshly prepared prior to use according to the suppliers' instructions and the pH adjusted to 6.5 using 1 M NaOH or 1 M HCl as required. From 1 mM working solution of test compound in DMSO, the λmax of the test compound is determined by scanning from 200 nm to 700 nm, in 1 nm steps with an EPOCH UV/Visible spectrophotometer (Biotek Instruments Inc.). A 12-point standard curve of compound concentration versus absorption at λmax is generated via two-fold serial dilutions of the 1 mM working solution with DMSO. Approximately 1 mg of test compound is accurately weighed into an Eppendorf tube and the appropriate volume of FaSSIF buffer is added to make a nominal concentration of 1 mg/mL. The tube is incubated on a rotator at 20 rpm, 25° C. for 24 hrs. Samples are then filtered using 0.45 μm filters (Sartorious, CAT #1776C) and the filtrate subjected to UV-vis spectroscopy analysis. The absorption at λmax is compared to the standard curve to determine the concentration of compound in solution after 24 hours.
# FaSSIF buffer was prepared according to the suppliers' instructions and the pH adjusted to 6.5 using 1 M NaOH or 1 M HCl as required. […] A stir stick was added to each vial and vials sealed with a moulded PTDE/SIL 96-well plate cover. The plate was shaken at 25° C. at 1,100 rpm using an Eppendorf Thermomixer Comfort plate shaker. The plates were filtered using a vacuum manifold and diluted with a mixture of H2O and acetonitrile containing internal standard. The concentration of the test compound in the filtrate was determined by LCMS analysis with reference to the internal standards to determine the solubility in the buffer.
# [2] = Plasma stability assay, rat plasma; format: in vitro ADME; details: Method 1 (5 μM)
# Summary of the method: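 Compound at 5 μM final (0.5% DMSO) in one protocol or 10 μM (2% DMSO) in the other, incubated in plasma at 37° C.; samples taken 0–120 min and quenched with cold acetonitrile plus internal standard. LC-MS/MS gives percent remaining relative to the 0-min sample.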
# [3] = Intrinsic clearance in liver microsomes, rat; format: in vitro ADME; details: rat, liver microsomes, pH 7.4, rat liver microsomes, Method 1; read-out: Half-Life (T1/2) (min), Rat
# Summary of the method: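 Compound at 1 μM (0.1–1% DMSO) incubated at 37 °C with mouse or rat liver microsomes (0.5 mg/mL protein) and 1 mM NADPH in PBS pH 7.4; samples taken up to 60 min and quenched in cold acetonitrile. LC-MS/MS of percent remaining gave half-life and CLint; no-NADPH controls run.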
# [4] = Plasma stability assay, human plasma; format: in vitro ADME; details: Method 1 (5 μM)
# Procedure: From stock solution of compound in 10 mM DMSO, a working solution of 1 mM is prepared by diluting the compound in DMSO. To 398 μL of plasma pre-warmed at 37° C. for 15 minutes), 2 μL of working solution of compound is added, resulting in a final concentration of 5 μM (0.5% DMSO) for the compound. The sample is then incubated at 37° C. Aliquot is withdrawn at specified time-points (0, 15, 30, 60 and 120 mins). The reaction is stopped by addition of 450 μL cold acetonitrile containing internal standard (IS). […] Aliquots of the supernatant is analysed using LC-MS/MS. The percent remaining of the compound at each time point is calculated with respect to the control sample (0 min time-point).
# A working solution of compound (500 μM) is prepared in DMSO (100%). To 735 μL of plasma, 15 μL of working solution of compound is added—resulting in a final concentration of 10 μM (2% DMSO) for the compound. The sample is then incubated at 37° C. Aliquot is withdrawn at time-points—0, 15, 30, 60, 90 and 120 mins. The reaction is stopped by using chilled acetonitrile containing internal standard (IS). The samples are centrifuged and the supernatants analyzed using LC-MS/MS. The percent remaining of the compound at each time point is calculated with respect to the control sample (0 min time-point).
# BRD4 BD1 = BRD4 BD1 (Homo sapiens (Human), UniProt O60885); experiment: NanoBRET bromodomain assay, NanoLuc-BRD4-BD1 fusion in HEK293 cells; format: cell-based; details: top concentration 10 μM
compound,measurement,setting,value
"CNC(=O)c1[nH]c(C(=O)NC2CCC2)cc1O[C@@H](C)c1ccccc1 (stereo in doubt) [Example 101, N^5-cyclobutyl-N^2-methyl-3-(1-phenylethoxy)-1H-pyrrole-2,5-dicarboxamide]",solubility thermodynamic at 24 h,[1],193 µM
same,"Plasma Stability (% remaining at 120 minutes), Rat",[2],61%
same,half-life at 1 μM,[3],58 min
same,"Plasma Stability (% remaining at 120 minutes), Human",[4],93%
same,IC50,BRD4 BD1,≥ 10 µM
